Laboratory results as given in US20230365584A1, “HETEROCYCLIC PERICONDENSED CDC7 KINASE INHIBITORS FOR THE TREATMENT OF CANCER” (SCHRÖDINGER, INC., priority 2020, published 2023).
Counter-ions that a name gives are not always drawn.

molecular target: Full length human CDC7 protein co-expressed with DBF4 (Homo sapiens (Human), UniProt O00311); test: CDC7 kinase biochemical assay (ADP-Glo, PDKtide substrate); settings: 0.1 nM CDC7/DBF4, 1 uM ATP, 10 uM PDKtide, 4 h
Experimental: CDC7 Kinase Biochemical Assay Protocol:
Full length human CDC7 protein co-expressed with DBF4 was purchased from SignalChem (China). CDC7 kinase activity was determined with PDKtide (SignalChem) as a substrate and by measuring ADP production using the ADP-Glo™ Kinase Assay kit (Promega) following the manufacturers instructions. The kinase reaction was performed using the following conditions: Buffer: 40 mM Tris pH 7.5, 20 mM MgCl2, 0.1 mg/ml BSA and 50 uM DTT. Final reaction mix contained 0.1 nM CDC7/DBF4, 1 uM ATP and 10 uM PDKtide. The kinase reaction time was 4 h. The ADP-Glo signal was measured using an EnVision plate reader (PerkinELmer).
Percent inhibition of CDC7 kinase activity was calculated based on the following formula:
[formula] • Ssample: the signal of compounds • SHigh Ctrl: the signal of high control (DMSO) • SLow Ctrl: the signal of low control (positive control CDC7 inhibitor)

Sequence of Full length human CDC7 protein co-expressed with DBF4 (O00311 whole entry): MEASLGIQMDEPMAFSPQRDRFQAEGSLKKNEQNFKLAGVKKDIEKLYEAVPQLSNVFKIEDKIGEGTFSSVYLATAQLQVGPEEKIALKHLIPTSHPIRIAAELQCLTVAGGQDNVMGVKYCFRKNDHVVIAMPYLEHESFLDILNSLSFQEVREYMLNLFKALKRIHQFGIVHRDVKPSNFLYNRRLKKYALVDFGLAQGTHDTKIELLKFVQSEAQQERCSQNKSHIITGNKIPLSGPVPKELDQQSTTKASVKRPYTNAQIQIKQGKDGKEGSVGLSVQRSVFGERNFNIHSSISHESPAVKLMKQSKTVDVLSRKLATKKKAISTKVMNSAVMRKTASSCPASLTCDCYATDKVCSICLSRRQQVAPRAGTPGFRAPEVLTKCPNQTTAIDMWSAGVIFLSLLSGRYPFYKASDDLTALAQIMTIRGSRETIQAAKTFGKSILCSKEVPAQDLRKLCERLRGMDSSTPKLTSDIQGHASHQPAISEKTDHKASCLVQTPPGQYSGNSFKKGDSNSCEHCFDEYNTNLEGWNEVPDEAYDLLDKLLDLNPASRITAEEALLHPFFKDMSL
Sequence of Full length human CDC7 protein co-expressed with DBF4 (Q9UBU7 whole entry partner): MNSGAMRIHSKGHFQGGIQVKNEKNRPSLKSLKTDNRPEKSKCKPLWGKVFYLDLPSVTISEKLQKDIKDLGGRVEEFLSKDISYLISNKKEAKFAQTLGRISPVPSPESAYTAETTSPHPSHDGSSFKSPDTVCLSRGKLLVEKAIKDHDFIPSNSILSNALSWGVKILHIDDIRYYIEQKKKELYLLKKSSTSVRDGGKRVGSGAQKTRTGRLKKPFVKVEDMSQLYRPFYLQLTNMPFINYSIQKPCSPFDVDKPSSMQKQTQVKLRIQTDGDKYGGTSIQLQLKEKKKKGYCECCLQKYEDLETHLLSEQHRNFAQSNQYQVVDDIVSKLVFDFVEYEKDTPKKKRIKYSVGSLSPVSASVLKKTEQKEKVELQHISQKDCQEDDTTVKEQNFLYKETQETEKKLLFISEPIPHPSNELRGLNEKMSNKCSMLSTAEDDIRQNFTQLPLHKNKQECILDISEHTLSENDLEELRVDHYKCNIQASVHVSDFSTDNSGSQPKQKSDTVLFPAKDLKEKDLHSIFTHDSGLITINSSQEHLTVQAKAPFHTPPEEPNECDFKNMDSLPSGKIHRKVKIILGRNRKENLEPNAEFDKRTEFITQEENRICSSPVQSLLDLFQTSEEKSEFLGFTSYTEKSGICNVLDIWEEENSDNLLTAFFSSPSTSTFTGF

Structure (SMILES)	IC50 [nM]
C[C@H]1Cc2c(CN3CCC3)[nH]c(=O)c3sc(-c4cn[nH]c4)c(c23)O1 (single isomer, unassigned) [Example 63]	< 1
C[C@@H]1Cc2c(CN3CCC3)[nH]c(=O)c3sc(-c4cn[nH]c4)c(c23)O1 (single isomer, unassigned) [Example 64]	< 1
C[C@@H](c1[nH]c(=O)c2sc(-c3cn[nH]c3)c3c2c1CCCO3)n1ccnn1 (single isomer, unassigned) [Example 50]	< 1
CC(=O)N(C)c1[nH]c(=O)c2sc(-c3cn[nH]c3)c3c2c1CCCO3 [Example 56, N-methyl-N-(3-oxo-1-(1H-pyrazol-4-yl)-4,6,7,8-tetrahydro-3H-9-oxa-2-thia-4-azabenzo[cd]azulen-5-yl)acetamide]	< 1
O=C1CCCN1Cc1[nH]c(=O)c2sc(-c3cn[nH]c3)c3c2c1CCCO3 [Example 41, 5-((2-oxopyrrolidin-1-yl)methyl)-1-(1H-pyrazol-4-yl)-4,6,7,8-tetrahydro-3H-9-oxa-2-thia-4-azabenzo[cd]azulen-3-one]	< 1
O=c1[nH]c(CN2CCC(F)(F)C2)c2c3c(c(-c4cn[nH]c4)sc13)OCCC2 [Example 25, 7-[(3,3-difluoropyrrolidin-1-yl)methyl]-2-(1H-pyrazol-4-yl)-12-oxa-13-thia-6-azatricyclo[6.4.1.0^4,13]trideca-1,4(13),7-trien-5-one]	< 1
O=c1[nH]c(Cn2cccn2)c2c3c(c(-c4ccncn4)sc13)OCCC2 [Example 19, 7-(pyrazol-1-ylmethyl)-2-pyrimidin-4-yl-12-oxa-3-thia-6-azatricyclo[6.4.1.0^4,13]trideca-1,4(13),7-trien-5-one]	< 1
NCc1[nH]c(=O)c2sc(-c3ccncc3)c3c2c1CCCO3 [Example 15, 5-(aminomethyl)-1-(pyridin-4-yl)-4,6,7,8-tetrahydro-3H-9-oxa-2-thia-4-azabenzo[cd]azulen-3-one;hydrochloride]	1 to 10
COC[C@H](OC)c1[nH]c(=O)c2sc(-c3cn[nH]c3)c3c2c1CCCO3 (single isomer, unassigned) [Example 40]	< 1
C[C@H](c1[nH]c(=O)c2sc(-c3cn[nH]c3)c3c2c1CCCO3)n1ccnn1 (single isomer, unassigned) [Example 49]	< 1
CC1Cc2c(CN3CC(F)C3)[nH]c(=O)c3sc(-c4cn[nH]c4)c(c23)O1 (stereo in doubt) [Example 67, (R)-6-((3-fluoroazetidin-1-yl)methyl)-4-methyl-2-(1H-pyrazol-4-yl)-5,7-dihydro-3-oxa-1-thia-7-azaacenaphthylen-8(4H)-one]	< 1
C[C@@H]1Cc2c(C(C)(C)O)[nH]c(=O)c3sc(-c4cn[nH]c4)c(c23)O1 (single isomer, unassigned) [Example 62]	< 1
O=c1[nH]c(Cn2cccn2)c2c3c(c(-c4cn[nH]c4)sc13)OCCC2 [Example 18, 2-(1H-pyrazol-4-yl)-7-(pyrazol-1-ylmethyl)-12-oxa-3-thia-6-azatricyclo[6.4.1.04,13]trideca-1,4(13),7-trien-5-one]	< 1
O=c1[nH]c(CN2CCC2)c2c3c(c(-c4ccncc4)sc13)OCCC2 [Example 12, 5-(azetidin-1-ylmethyl)-1-(pyridin-4-yl)-4,6,7,8-tetrahydro-3H-9-oxa-2-thia-4-azabenzo[cd]azulen-3-one]	< 1
O=c1[nH]c(CN2CC(O)C2)c2c3c(c(-c4cn[nH]c4)sc13)OCCC2 [Example 78, 7-[(3-hydroxyazetidin-1-yl)methyl]-2-(1H-pyrazol-4-yl)-12-oxa-3-thia-6-azatricyclo [6.4.1.0^4,13]trideca-1,4(13),7-trien-5-one]	< 1
CC(C)(O)c1[nH]c(=O)c2sc(-c3ccncc3)c3c2c1CCCO3 [Example 29, 5-(2-hydroxypropan-2-yl)-1-(pyridin-4-yl)-4,6,7,8-tetrahydro-3H-9-oxa-2-thia-4-azabenzo[cd]azulen-3-one]	< 1
CC[C@](C)(O)c1[nH]c(=O)c2sc(-c3c[nH]nc3C)c3c2c1CCCO3 (single isomer, unassigned) [Example 73]	≥ 10
CC(C)(O)c1[nH]c(=O)c2sc(-c3cn[nH]c3)c3c2c1CC(F)(F)CO3 [Example 45, 10,10-difluoro-7-(1-hydroxy-1-methyl-ethyl)-2-(1H-pyrazol-4-yl)-12-oxa-3-thia-6-azatricyclo[6.4.1.0^4,13]trideca-1,4(13),7-trien-5-one]	< 1
CC(C)(C)OC(=O)NCc1[nH]c(=O)c2sc(-c3ccncc3)c3c2c1CCCO3 [Example 14, tert-butyl ((3-oxo-1-(pyridin-4-yl)-4,6,7,8-tetrahydro-3H-9-oxa-2-thia-4-azabenzo[cd]azulen-5-yl)methyl)carbamate]	1 to 10
COC[C@@H](c1[nH]c(=O)c2sc(-c3cn[nH]c3)c3c2c1CCCO3)n1cccn1 (single isomer, unassigned) [Example 36]	< 1

Structure (SMILES)	IC50 [nM]
Cc1n[nH]cc1-c1sc2c(=O)[nH]c(Cn3cccn3)c3c2c1OCCC3 [Example 20, 2-(3-methyl-1H-pyrazol-4-yl)-7-(pyrazol-1-ylmethyl)-12-oxa-3-thia-6-azatricyclo[6.4.1.0^4,13]trideca-1,4(13),7-trien-5-one]	< 1
C[C@@H]1Cc2c(CN3CC[C@H]3C)[nH]c(=O)c3sc(-c4cn[nH]c4)c(c23)O1 (single isomer, unassigned) [Example 81]	< 1
O=c1[nH]c(CN2CC[C@H](O)C2)c2c3c(c(-c4ccncc4)sc13)OCCC2 [Example 10, (S)-5-((3-hydroxypyrrolidin-1-yl)methyl)-1-(pyridin-4-yl)-4,6,7,8-tetrahydro-3H-9-oxa-2-thia-4-azabenzo[cd]azulen-3-one]	1 to 10
CC(NC1CCC1)c1[nH]c(=O)c2sc(-c3cn[nH]c3)c3c2c1CCCO3 (stereo not shown) [Example 34]	< 1
Cc1[nH]c(=O)c2sc(-c3cn[nH]c3)c3c2c1CCO3 [Example 3, 6-methyl-2-(1H-pyrazol-4-yl)-5,7-dihydro-3-oxa-1-thia-7-azaacenaphthylen-8(4H)-one]	1 to 10
CC1Cc2c(CN3CC(F)C3)[nH]c(=O)c3sc(-c4cn[nH]c4)c(c23)O1 (stereo in doubt) [Example 68, (S)-6-((3-fluoroazetidin-1-yl)methyl)-4-methyl-2-(1H-pyrazol-4-yl)-5,7-dihydro-3-oxa-1-thia-7-azaacenaphthylen-8(4H)-one]	< 1
C[C@@H]1Cc2c(CN3CC(O)C3)[nH]c(=O)c3sc(-c4cn[nH]c4)c(c23)O1 (single isomer, unassigned) [Example 80]	< 1
CC1Cc2c(CN3CC[C@H](F)C3)[nH]c(=O)c3sc(-c4cn[nH]c4)c(c23)O1 (stereo in doubt) [Example 69, (S)-6-(((S)-3-fluoropyrrolidin-1-yl)methyl)-4-methyl-2-(1H-pyrazol-4-yl)-5,7-dihydro-3-oxa-1-thia-7-azaacenaphthylen-8(4H)-one]	< 1
COC[C@@H](c1[nH]c(=O)c2sc(-c3cn[nH]c3)c3c2c1CCCO3)N1CCC(F)(F)C1 (single isomer, unassigned) [Example 38]	1 to 10
Cc1[nH]c(=O)c2sc(-c3cn[nH]c3)c3c2c1CC(C)O3 (stereo not shown) [Example 9, 4,6-dimethyl-2-(1H-pyrazol-4-yl)-5,7-dihydro-3-oxa-1-thia-7-azaacenaphthylen-8(4H)-one]	< 1
C[C@H]1Cc2c(C(C)(C)O)[nH]c(=O)c3sc(-c4cn[nH]c4)c(c23)O1 (single isomer, unassigned) [Example 61]	< 1
C[C@](O)(c1[nH]c(=O)c2sc(-c3cn[nH]c3)c3c2c1CCCO3)C1CC1 (single isomer, unassigned) [Example 60]	< 1
CC1Cc2c(CN3CC[C@H](F)C3)[nH]c(=O)c3sc(-c4cn[nH]c4)c(c23)O1 (stereo in doubt) [Example 70, (R)-6-(((S)-3-fluoropyrrolidin-1-yl)methyl)-4-methyl-2-(1H-pyrazol-4-yl)-5,7-dihydro-3-oxa-1-thia-7-azaacenaphthylen-8(4H)-one]	< 1
C[C@H](O)c1[nH]c(=O)c2sc(-c3cn[nH]c3)c3c2c1CCCO3 (single isomer, unassigned) [Example 32]	< 1
C[C@H](c1[nH]c(=O)c2sc(-c3cn[nH]c3)c3c2c1CCCO3)n1cc(C#N)cn1 (single isomer, unassigned) [Example 27]	< 1
CC[C@@](C)(O)c1[nH]c(=O)c2sc(-c3ccncc3)c3c2c1CCCO3 (single isomer, unassigned) [Example 72]	< 1
O=c1[nH]c(C2(O)CCCC2)c2c3c(c(-c4cn[nH]c4)sc13)OCCC2 [Example 85, 5-(1-hydroxycyclopentyl)-1-(1H-pyrazol-4-yl)-4,6,7,8-tetrahydro-3H-9-oxa-2-thia-4-azabenzo[cd]azulen-3-one]	< 1
O=C(c1[nH]c(=O)c2sc(-c3cn[nH]c3)c3c2c1CCCO3)N1CCOCC1 [Example 52, 7-(morpholine-4-carbonyl)-2-(1H-pyrazol-4-yl)-12-oxa-3-thia-6-azatricyclo[6.4.1.0^4,13]-trideca-1,4(13),7-trien-5-one]	1 to 10
C[C@H]1Cc2c(CN3CCC(F)(F)C3)[nH]c(=O)c3sc(-c4cn[nH]c4)c(c23)O1 (single isomer, unassigned) [Example 66]	< 1
C[C@@H](O)c1[nH]c(=O)c2sc(-c3cn[nH]c3)c3c2c1CCCO3 (single isomer, unassigned) [Example 33]	< 1
